Measured values: patent EP4710949A1, “LYOPHILIZED PREPARATION, LYOPHILIZED SOLUTION, METHODS FOR PRODUCING SAME, AND LIQUID AGENT” (Goryo Chemical, Inc., priority 2023, dated 2024)
Converted amounts (≈) assume the structure as drawn. “And” between values parts separate entries of the source, which are not always exact repeats. Equal entries are not always repeated.

Assays:
[1] = Dissolution test of Compound A (Test Example 1); assay type: physicochemical; conditions: 0.03% ps20, pH 7; 0.03 wt% PS20 solution (phosphate buffer)
Experimental: (§1) ·Column: Meteoric Core C8, 5 µm, 4.6 mm×150 mm (YMC Co., Ltd.) ·Column temperature: 25°C ·Feeding amount: 1.0 mL/min. ·Wavelength: 254 nm ·Mobile phase A: water/TFA (1,000:1), Mobile phase B: acetonitrile/TFA (1,000:1) ·Feeding of mobile phase Table 1
1 Milligram of Compound A and 10 mL of a 6.55 mM phosphate buffer (pH: 7) containing 0 wt% to 0.03 wt% of polysorbate 20 (FUJIFILM Wako Pure Chemical Corporation, hereinafter referred to as "PS20") or an aqueous solution of NaH2PO4 (0.33 mg/mL) containing 0 wt% to 0.03 wt% of PS20 were loaded into a glass vial having a volume of 20 mL, and air inside the vial was purged with nitrogen. The vial was loaded into Aluminum Lamizip, and the vial was shaken overnight. The phosphate buffer was prepared by using NaH2PO4 and Na2HPO4. The mixture was filtered with a PVDF filter (Millex-GV, 0.22 µm, PVDF, 4 mm), and the solution after 10 drops of its initial flow was collected. Thus, solutions having formulations 1 to 8 were obtained. The concentrations of Compound A in the resultant solutions were calculated by the HPLC measurement of the solutions.

[2] = Reconstitution of lyophilized preparation of Compound A in physiological saline (Test Example 8); assay type: physicochemical
Experimental: as §1
Physiological saline (physiological salt solution "OTSUKA NORMAL SALINE") was added to a lyophilized preparation produced according to the same formulation as the formulation 32 except the concentration of Compound A in the lyophilization solution, and the preparation was dissolved in the saline so that a liquid amount was 5 mL. Thus, a reconstituted solution (liquid preparation) of Compound A was obtained. The concentration of Compound A in the reconstituted solution was calculated by HPLC measurement, and the content of Compound A was calculated. […]

solubility [1]: 12.4 µg/mL (≈ 19.6 µM) | measured value of the concentration of Compound A ([2]; lyophilization solution used in the production of the lyophilized preparation (same formulation as formulation 32 except Compound A concentration)): 149.2 µg/mL | appearance of the reconstituted solution ([2]; lyophilized preparation dissolved in physiological saline, 5 mL): clear and free of visible particles | Final concentration of Compound A ([2]; reconstituted solution, 5 mL physiological saline, lyophilized preparation as formulation 32 except Compound A concentration): 29.9 µg/mL and 47.2 µM | Content of Compound A (%) ([2]; reconstituted solution, 5 mL physiological saline, ratio to content in lyophilization solution): 100.1%
Structure (SMILES): COCC(=O)N[C@@H](CC(C)C)C(=O)N[C@@H](CCSC)C(=O)Nc1ccc2c(c1)Oc1cc(N)ccc1C21OCc2ccccc21 (some centres unmarked) [Compound A]
